# In ChEMBL document CHEMBL3769397, “A new GLP-1 analogue with prolonged glucose-lowering activity in vivo via backbone-based modification at the N-terminus” (Bioorg Med Chem, 2016):
# Experiments:
# [1] = test system: Mus musculus; assay: Reduction in blood glucose in Kunming mouse assessed as blood glucose level at 25 nmol/kg, ip at administered 0 mins followed by first glucose challenge at 40 mins followed by second glucose challenge at 310 mins and measured at 385 mins by glucose tolerance test (reference value: 4.9 to 6.3 mmol/L); format: functional
# [2] = test system: Mus musculus; assay: Reduction in blood glucose in Kunming mouse assessed as blood glucose level at 25 nmol/kg, ip at administered 0 mins followed by first glucose challenge at 40 mins followed by second glucose challenge at 310 mins and measured at 40 mins by glucose tolerance test (reference value: 4.9 to 6.3 mmol/L); format: functional
# [3] = test system: Mus musculus; assay: Reduction in blood glucose in Kunming mouse assessed as blood glucose level at 25 nmol/kg, ip at administered 0 mins followed by first glucose challenge at 40 mins followed by second glucose challenge at 310 mins and measured at 115 mins by glucose tolerance test (reference value: 4.9 to 6.3 mmol/L); format: functional
# [4] = test system: Mus musculus; assay: Reduction in blood glucose in Kunming mouse assessed as blood glucose level at 25 nmol/kg, ip at administered 0 mins followed by first glucose challenge at 40 mins followed by second glucose challenge at 310 mins and measured at 55 mins by glucose tolerance test (reference value: 4.9 to 6.3 mmol/L); format: functional
# [5] = test system: Mus musculus; assay: Reduction in blood glucose in Kunming mouse assessed as blood glucose level at 25 nmol/kg, ip at administered 0 mins followed by first glucose challenge at 40 mins followed by second glucose challenge at 310 mins and measured at 310 mins by glucose tolerance test (reference value: 4.9 to 6.3 mmol/L); format: functional
# [6] = test system: Mus musculus; assay: Reduction in blood glucose in Kunming mouse assessed as blood glucose level at 25 nmol/kg, ip at administered 0 mins followed by first glucose challenge at 40 mins followed by second glucose challenge at 310 mins and measured at 160 mins by glucose tolerance test (reference value: 4.9 to 6.3 mmol/L); format: functional
# [7] = test system: Mus musculus; assay: Reduction in blood glucose in Kunming mouse assessed as blood glucose level at 25 nmol/kg, ip at administered 0 mins followed by first glucose challenge at 40 mins followed by second glucose challenge at 310 mins and measured at 80 mins by glucose tolerance test (reference value: 4.9 to 6.3 mmol/L); format: functional
# [8] = test system: Mus musculus; assay: Reduction in blood glucose in Kunming mouse assessed as blood glucose level at 25 nmol/kg, ip at administered 0 mins followed by first glucose challenge at 40 mins followed by second glucose challenge at 310 mins and measured at 350 mins by glucose tolerance test (reference value: 4.9 to 6.3 mmol/L); format: functional
# [9] = test system: Mus musculus; assay: Reduction in blood glucose in Kunming mouse assessed as blood glucose level at 25 nmol/kg, ip at administered 0 mins followed by first glucose challenge at 40 mins followed by second glucose challenge at 310 mins and measured at 430 mins by glucose tolerance test (reference value: 4.9 to 6.3 mmol/L); format: functional
# [10] = test system: Mus musculus; assay: Reduction in blood glucose in Kunming mouse assessed as blood glucose level at 25 nmol/kg, ip at administered 0 mins followed by first glucose challenge at 40 mins followed by second glucose challenge at 310 mins and measured at 325 mins by glucose tolerance test (reference value: 4.9 to 6.3 mmol/L); format: functional
# [11] = biological target: T1, DPP4 (dipeptidyl peptidase 4) (Homo sapiens, UniProt P27487); assay: Half life of compound assessed as recombinant human DPP4-mediated cleavage by RP-HPLC analysis; format: ADME
# [12] = Retention time of compound over 30 mins by HPLC analysis; format: physicochemical; details: 0.5 h
# [13] = biological target: T1, DPP4 (dipeptidyl peptidase 4); assay: Drug degradation assessed as recombinant human DPP4-mediated cleavage by measuring compound remaining after 24 hrs by RP-HPLC analysis; format: ADME; details: read-out: Stability
# [14] = biological target: T1, DPP4 (dipeptidyl peptidase 4); assay: Drug degradation assessed as recombinant human DPP4-mediated cleavage by measuring compound remaining after 12 hrs by RP-HPLC analysis; format: ADME; details: read-out: Stability
# [15] = biological target: Glucagon-like peptide 1 receptor (Homo sapiens, UniProt P43220); assay: Activation of human GLP1R expressed in HEK293 cells preincubated for 30 mins followed by addition of cAMP-d2 conjugate/cryptate conjugate incubated for 60 mins by fluorescence analysis; format: functional, cell-based
# [16] = biological target: T1, DPP4 (dipeptidyl peptidase 4); assay: Drug degradation assessed as recombinant human DPP4-mediated cleavage by measuring compound remaining after 72 hrs by RP-HPLC analysis; format: ADME; details: read-out: Stability
# [17] = biological target: T1, DPP4 (dipeptidyl peptidase 4); assay: Drug degradation assessed as recombinant human DPP4-mediated cleavage by measuring compound remaining after 48 hrs by RP-HPLC analysis; format: ADME; details: read-out: Stability
# [18] = biological target: T1, DPP4 (dipeptidyl peptidase 4); assay: Drug degradation assessed as recombinant human DPP4-mediated cleavage by measuring compound remaining after 96 hrs by RP-HPLC analysis; format: ADME; details: read-out: Stability
# [19] = test system: Mus musculus; assay: Reduction in blood glucose in Kunming mouse assessed as blood glucose AUC at 25 nmol/kg, ip at administered 0 mins followed by first glucose challenge at 40 mins followed by second glucose challenge at 310 mins and measured at 325 mins by glucose tolerance test relative to control; format: functional; set-up: scale not given: the % may be the effect or the level left
# [20] = test system: Mus musculus; assay: Reduction in blood glucose in Kunming mouse assessed as blood glucose peak value at 25 nmol/kg, ip at administered 0 mins followed by first glucose challenge at 40 mins measured at 80 mins by glucose tolerance test relative to control; format: functional; set-up: scale not given: the % may be the effect or the level left
# [21] = test system: Mus musculus; assay: Reduction in blood glucose in Kunming mouse assessed as blood glucose peak value at 25 nmol/kg, ip at administered 0 mins followed by first glucose challenge at 40 mins followed by second glucose challenge at 310 mins and measured at 325 mins by glucose tolerance test relative to control; format: functional; set-up: scale not given: the % may be the effect or the level left
# [22] = test system: Mus musculus; assay: Reduction in blood glucose in Kunming mouse assessed as blood glucose AUC at 25 nmol/kg, ip at administered 0 mins followed by first glucose challenge at 40 mins measured at 80 mins by glucose tolerance test relative to control; format: functional; set-up: scale not given: the % may be the effect or the level left
# T1 sequence (P27487 whole entry): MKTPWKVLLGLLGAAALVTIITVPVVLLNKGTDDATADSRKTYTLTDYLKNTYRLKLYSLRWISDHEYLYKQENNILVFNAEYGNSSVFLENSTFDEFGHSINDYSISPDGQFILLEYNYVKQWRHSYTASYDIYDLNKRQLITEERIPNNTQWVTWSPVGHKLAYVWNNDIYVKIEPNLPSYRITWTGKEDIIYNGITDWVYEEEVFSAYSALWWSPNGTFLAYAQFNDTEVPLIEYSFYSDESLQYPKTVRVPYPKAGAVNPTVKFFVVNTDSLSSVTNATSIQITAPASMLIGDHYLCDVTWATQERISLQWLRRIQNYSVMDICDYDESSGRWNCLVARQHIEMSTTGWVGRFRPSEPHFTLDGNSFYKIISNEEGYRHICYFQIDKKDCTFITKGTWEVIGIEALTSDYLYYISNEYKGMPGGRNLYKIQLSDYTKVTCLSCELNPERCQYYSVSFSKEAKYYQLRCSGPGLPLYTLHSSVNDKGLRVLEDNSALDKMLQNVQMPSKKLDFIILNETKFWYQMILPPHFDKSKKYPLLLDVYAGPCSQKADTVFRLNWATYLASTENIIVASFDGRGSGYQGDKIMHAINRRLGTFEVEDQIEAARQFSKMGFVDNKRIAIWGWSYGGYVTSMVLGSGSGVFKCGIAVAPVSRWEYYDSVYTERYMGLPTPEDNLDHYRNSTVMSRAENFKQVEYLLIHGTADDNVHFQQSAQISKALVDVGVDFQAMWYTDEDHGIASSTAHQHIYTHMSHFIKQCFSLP
# Glucagon-like peptide 1 receptor, sequence (P43220 whole entry): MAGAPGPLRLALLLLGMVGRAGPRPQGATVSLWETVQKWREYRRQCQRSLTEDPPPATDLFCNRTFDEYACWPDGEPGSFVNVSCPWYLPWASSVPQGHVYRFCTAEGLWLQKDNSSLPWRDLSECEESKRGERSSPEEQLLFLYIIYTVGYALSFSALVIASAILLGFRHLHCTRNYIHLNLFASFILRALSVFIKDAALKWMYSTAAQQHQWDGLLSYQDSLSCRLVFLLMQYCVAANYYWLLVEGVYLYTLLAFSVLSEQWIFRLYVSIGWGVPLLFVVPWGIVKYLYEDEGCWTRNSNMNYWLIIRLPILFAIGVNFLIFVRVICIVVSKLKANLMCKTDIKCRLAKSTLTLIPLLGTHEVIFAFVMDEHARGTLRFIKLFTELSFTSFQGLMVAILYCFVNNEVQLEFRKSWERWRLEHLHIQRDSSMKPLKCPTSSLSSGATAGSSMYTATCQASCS
SMILES,Activity [1] [mmol/L],Activity [2] [mmol/L],Activity [3] [mmol/L],Activity [4] [mmol/L],Activity [5] [mmol/L],Activity [6] [mmol/L],Activity [7] [mmol/L],Activity [8] [mmol/L],Activity [9] [mmol/L],Activity [10] [mmol/L],half-life [11] [h],Retention_time [12] [min],remaining at 24 h [13] [%],remaining at 12 h [14] [%],EC50 [15] [nM],remaining at 72 h [16] [%],remaining at 48 h [17] [%],remaining at 96 h [18] [%],also measured
CC[C@H](C)[C@H](NC(=O)[C@H](Cc1ccccc1)NC(=O)[C@H](CCC(=O)O)NC(=O)[C@H](CCCCN)NC(=O)[C@H](C)NC(=O)[C@H](C)NC(=O)[C@H](CCC(N)=O)NC(=O)CNC(=O)[C@H](CCC(=O)O)NC(=O)[C@H](CC(C)C)NC(=O)[C@H](Cc1ccc(O)cc1)NC(=O)[C@H](CO)NC(=O)[C@H](CO)NC(=O)[C@@H](NC(=O)[C@H](CC(=O)O)NC(=O)[C@H](CO)NC(=O)[C@@H](NC(=O)[C@H](Cc1ccccc1)NC(=O)[C@@H](NC(=O)CNC(=O)[C@H](CCC(=O)O)NC(=O)[C@H](C)CNC(=O)[C@@H](N)Cc1cnc[nH]1)[C@@H](C)O)[C@@H](C)O)C(C)C)C(=O)N[C@@H](C)C(=O)N[C@@H](Cc1c[nH]c2ccccc12)C(=O)N[C@@H](CC(C)C)C(=O)N[C@H](C(=O)N[C@@H](CCCCN)C(=O)NCC(=O)N[C@@H](CCCNC(=N)N)C(N)=O)C(C)C,8.1,6.1,10.8,13.5,5.4,6.9,16.6,16.5,7.8,23.4,,,,,,,,,
CC[C@H](C)[C@H](NC(=O)[C@H](Cc1ccccc1)NC(=O)[C@H](CCC(=O)O)NC(=O)[C@H](CCCCN)NC(=O)[C@H](C)NC(=O)[C@H](C)NC(=O)[C@H](CCC(N)=O)NC(=O)CNC(=O)[C@H](CCC(=O)O)NC(=O)[C@H](CC(C)C)NC(=O)[C@H](Cc1ccc(O)cc1)NC(=O)[C@H](CO)NC(=O)[C@H](CO)NC(=O)[C@@H](NC(=O)[C@H](CC(=O)O)NC(=O)[C@H](CO)NC(=O)[C@@H](NC(=O)[C@H](Cc1ccccc1)NC(=O)[C@@H](NC(=O)CNC(=O)[C@H](CCC(=O)O)NC(=O)[C@H]1CCC[C@@H]1NC(=O)[C@@H](N)Cc1cnc[nH]1)[C@@H](C)O)[C@@H](C)O)C(C)C)C(=O)N[C@@H](C)C(=O)N[C@@H](Cc1c[nH]c2ccccc12)C(=O)N[C@@H](CC(C)C)C(=O)N[C@H](C(=O)N[C@@H](CCCCN)C(=O)NCC(=O)N[C@@H](CCCNC(=N)N)C(N)=O)C(C)C,11.4,7,11.5,14.8,6.2,9.1,15.9,19.2,8.7,22.8,> 96,13.997,100,100,0.0766,100,100,100,
CC[C@H](C)[C@H](NC(=O)[C@H](Cc1ccccc1)NC(=O)[C@H](CCC(=O)O)NC(=O)[C@H](CCCCN)NC(=O)[C@H](C)NC(=O)[C@H](C)NC(=O)[C@H](CCC(N)=O)NC(=O)CNC(=O)[C@H](CCC(=O)O)NC(=O)[C@H](CC(C)C)NC(=O)[C@H](Cc1ccc(O)cc1)NC(=O)[C@H](CO)NC(=O)[C@H](CO)NC(=O)[C@@H](NC(=O)[C@H](CC(=O)O)NC(=O)[C@H](CO)NC(=O)[C@@H](NC(=O)[C@H](Cc1ccccc1)NC(=O)[C@@H](NC(=O)CNC(=O)[C@H](CCC(=O)O)NC(=O)C1(NC(=O)[C@@H](N)Cc2cnc[nH]2)CC1)[C@@H](C)O)[C@@H](C)O)C(C)C)C(=O)N[C@@H](C)C(=O)N[C@@H](Cc1c[nH]c2ccccc12)C(=O)N[C@@H](CC(C)C)C(=O)N[C@H](C(=O)N[C@@H](CCCCN)C(=O)NCC(=O)N[C@@H](CCCNC(=N)N)C(N)=O)C(C)C,10.8,7.5,13.8,12.9,5.9,6.5,17.2,19.8,7.1,21.2,,,,,,,,,
CC[C@H](C)[C@H](NC(=O)[C@H](Cc1ccccc1)NC(=O)[C@H](CCC(=O)O)NC(=O)[C@H](CCCCN)NC(=O)[C@H](C)NC(=O)[C@H](C)NC(=O)[C@H](CCC(N)=O)NC(=O)CNC(=O)[C@H](CCC(=O)O)NC(=O)[C@H](CC(C)C)NC(=O)[C@H](Cc1ccc(O)cc1)NC(=O)[C@H](CO)NC(=O)[C@H](CO)NC(=O)[C@@H](NC(=O)[C@H](CC(=O)O)NC(=O)[C@H](CO)NC(=O)[C@@H](NC(=O)[C@H](Cc1ccccc1)NC(=O)[C@@H](NC(=O)CNC(=O)[C@H](CCC(=O)O)NC(=O)CCNC(=O)[C@@H](N)Cc1cnc[nH]1)[C@@H](C)O)[C@@H](C)O)C(C)C)C(=O)N[C@@H](C)C(=O)N[C@@H](Cc1c[nH]c2ccccc12)C(=O)N[C@@H](CC(C)C)C(=O)N[C@H](C(=O)N[C@@H](CCCCN)C(=O)NCC(=O)N[C@@H](CCCNC(=N)N)C(N)=O)C(C)C,9.8,6.5,11.8,12.8,6.3,7.8,16,16.8,6.8,19.6,> 96,13.751,100,100,0.0329,100,100,100,Activity [19]: 81%; Activity [20]: 61%; Activity [21]: 84%; Activity [22]: 63%
